Laboratory results reported in PMC4065883 (European journal of medicinal chemistry, 2014).
“Also recorded” adds a separate entry of the source. Like-named read-outs stand apart in the source and are kept apart here.

Experiments:
MC65 cells = conditions: MTT
[1] = Hydroxyl radical scavenging, BMPO spin trap EPR; conditions: compound 1 mM, BMPO 10 mM
Peroxyl = conditions: compound 1 mM, BMPO 10 mM
[2] = ROS scavenging activity, radical type not specified, BMPO spin trap EPR; conditions: compound 1 mM, BMPO 10 mM
[3] = biological target: T1, Acetylcholinesterase from bovine erythrocytes (Bos taurus, UniProt P23795); type: biochemical
T1 sequence (P23795 31-614 isoform P23795-2 limits assumed): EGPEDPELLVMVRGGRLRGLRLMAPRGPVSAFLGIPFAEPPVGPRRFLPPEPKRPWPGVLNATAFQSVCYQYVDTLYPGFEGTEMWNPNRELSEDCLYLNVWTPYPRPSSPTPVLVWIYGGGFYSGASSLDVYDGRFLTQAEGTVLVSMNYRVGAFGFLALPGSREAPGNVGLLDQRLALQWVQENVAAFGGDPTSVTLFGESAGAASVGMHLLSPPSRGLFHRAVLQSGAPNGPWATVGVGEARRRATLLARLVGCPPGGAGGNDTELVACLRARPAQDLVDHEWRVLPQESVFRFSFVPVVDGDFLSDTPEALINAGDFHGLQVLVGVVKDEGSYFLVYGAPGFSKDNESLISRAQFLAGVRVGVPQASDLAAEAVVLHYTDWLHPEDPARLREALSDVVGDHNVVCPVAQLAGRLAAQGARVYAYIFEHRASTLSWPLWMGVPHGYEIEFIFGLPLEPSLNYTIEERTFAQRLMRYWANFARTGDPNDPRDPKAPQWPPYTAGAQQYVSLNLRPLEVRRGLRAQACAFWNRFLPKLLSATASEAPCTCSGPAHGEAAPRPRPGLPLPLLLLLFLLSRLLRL

Structure (SMILES)	protection against Aβ-induced cytotoxicity (in words) (MC65 cells)	hydroxyl radical scavenging activity (in words) [1]	peroxyl / superoxide radical scavenging activity (in words) (Peroxyl)	ROS scavenging activity (in words) [2]	AChEI activity (in words) [3]	protection against Aβ-induced cytotoxicity (in words) (MC65 cells; listed as 9)	peroxyl / superoxide radical scavenging activity (in words) (Peroxyl; listed as 20)
Cl.Nc1c2c(nc3ccccc13)CCCC2 [1/HCl, reference compound]	do not exhibit any protection	limited	limited				
Nc1c2c(nc3ccccc13)CCCC2 [1b, 9-amino-1,2,3,4-tetrahydroacridine, reference compound]		limited	limited; also recorded: lack peroxyl radical scavenging activity	no significant effect on the level of radical detected			
CC1(C)C=C(CNc2c3c(nc4ccccc24)CCCC3)C(C)(C)N1[O] [4b, 2,2,5,5-Tetramethyl-3-[(1,2,3,4-tetrahydroacridin-9-yl)aminomethyl]-2,5-dihydro-1H-pyrrol-1-yloxyl Radical]	protection against Aβ-induced cytotoxicity		excellent	remarkable ROS scavenging activity	less AChEI activity than compound 1b		
CC1(C)C=C(CN2CCN(c3c4c(nc5ccccc35)CCCC4)CC2)C(C)(C)N1[O] [9b, 2,2,5,5-Tetramethyl-3-[4-(1,2,3,4-tetrahydroacridin-9-yl)piperazin-1-ylmethyl]-2,5-dihydro-1H-pyrrol-1-yloxyl Radical]	protection against Aβ-induced cytotoxicity		excellent	remarkable ROS scavenging activity	less AChEI activity than compound 1b	remarkable cell protection	
CC1(C)Cc2nc3ccccc3c(N)c2C(C)(C)N1 [16b, 1,1,3,3-tetramethyl-1,2,3,4-tetrahydrobenzo[b][1,6]naphthyridin-10-amine]	notable protective activity; also recorded: lower protective activity		lack peroxyl radical scavenging activity		inactive		
CC1(C)Cc2nc3ccccc3c(N)c2C(C)(C)N1[O] [17b, 10-amino-1,1,3,3-tetramethyl-3,4-dihydrobenzo[b][1,6]naphthyridin-2(1H)-yloxyl Radical]	notable protective activity	superior	excellent				
CC1(C)NC(C)(C)c2c1nc1ccccc1c2N [19b, 1,1,3,3-tetramethyl-2,3-dihydro-1H-pyrrolo[3,4-b]quinolin-9-amine]	notable protective activity; also recorded: lower protective activity						
CC1(C)c2nc3ccccc3c(N)c2C(C)(C)N1[O] [20b, 9-amino-1,1,3,3-tetramethyl-1H-pyrrolo[3,4-b]quinolin-2(3H)-yloxyl Radical]	notable protective activity		lack peroxyl radical scavenging activity				excellent
CN1CCc2nc3ccccc3c(N)c2C1 [22b, 2-methyl-1,2,3,4-tetrahydrobenzo[b][1,6]naphthyridin-10-amine]	notable protective activity		lack peroxyl radical scavenging activity				
CN1C(C)(C)Cc2nc3ccccc3c(N)c2C1(C)C [24b, 1,1,2,3,3-pentamethyl-1,2,3,4-tetrahydrobenzo[b][1,6]naphthyridin-10-amine]	notable protective activity		lack peroxyl radical scavenging activity		limited AChEI activity		
CC1(C)C=C(CNc2c3c(nc4ccccc24)CCCC3)CC(C)(C)N1[O] [compound 5, 2,2,6,6-Tetramethyl-4-[(1,2,3,4-tetrahydroacridin-9-yl)aminomethyl]-1,2,3,6-tetrahydropyridin-1-yloxyl Radical]	protection against Aβ-induced cytotoxicity		excellent	remarkable ROS scavenging activity	less AChEI activity than compound 1b		
c1ccc2c(N3CCNCC3)c3c(nc2c1)CCCC3 [compound 7, 9-(Piperazin-1-yl)-1,2,3,4-tetrahydroacridine]	do not provide any significant level of cell protection	limited	limited; also recorded: lack peroxyl radical scavenging activity				
C#CCN1CCN(c2c3c(nc4ccccc24)CCCC3)CC1 [compound 10, 9-[4-(prop-2-yn-1-yl)piperazin-1-yl]-1,2,3,4-tetrahydroacridine]	do not provide any significant level of cell protection	limited	limited; also recorded: lack peroxyl radical scavenging activity		less AChEI activity than compound 1b		
CC1(C)CC(n2cc(CN3CCN(c4c5c(nc6ccccc46)CCCC5)CC3)nn2)CC(C)(C)N1[O] [compound 12, 2,2,6,6-Tetramethyl-4-{4-[4-(1,2,3,4-tetrahydroacridin-9-yl)piperazin-1-ylmethyl]-1H-1,2,3-triazol-1-yl}piperidin-1-yloxyl Radical]	protection against Aβ-induced cytotoxicity; also recorded: remarkable cell protection		excellent	remarkable ROS scavenging activity; also recorded: most efficient	less AChEI activity than compound 1b; also recorded: active; also recorded: most efficient AChE inhibitors		
COc1ccc(CN2CCN(c3c4c(nc5ccccc35)CCCC4)CC2)c(OC)c1OC [compound 13, 9-[4-(2,3,4-trimethoxybenzyl)piperazin-1-yl]-1,2,3,4-tetrahydroacridine]	notable protective activity		lack peroxyl radical scavenging activity	appreciable scavenging activity; also recorded: notable antioxidant activity			
